Assay: Concentration of active ingredient dissolved in 60% (w/w) aqueous SBECD after filtration, determined by HPLC
Format: physicochemical
Details: 0.2 micrometer filter
Method: (§1) 200 mg of coumarin were added to 4 g of 60% (w/w) aqueous SBECD, and the mixture was mixed at 34° C. for 48 hours, and then filtered through a 0.2 micrometer nylon filter to produce 44.3 mg/g coumarin solution, as determined by HPLC. 40 mg of cetylpiridinium chloride were added to the solution and mixed until completely dissolved, and the composition was filtered.
as §1, with “400” for “200”, “ibuprofen” for “coumarin”, “78.1” for “44.3”, “60” for “40”, “triethanoloamine” for “cetylpiridinium chloride”
as §1, with “2” for “200”, “paclitaxel” for “coumarin”, “0.4” for “44.3”, “heptakis(6-guanidino-6-deoxy)-beta-cyclodextrin” for “cetylpiridinium chloride”
200 mg of diindolylmethane were added to 4 g of 60% (w/w) aqueous SBECD, and the mixture was heated in boiling water bath for 1 hour, then kept at room temperature for 24 hours. The mixture was then filtered through a 0.2 micrometer nylon filter to produce 40.3 mg/g diindolylmethane solution, as determined by HPLC. 24 mg of octakis(6-guanidino-6-deoxy)-gamma-cyclodextrin were added to the solution and mixed until completely dissolved, and the composition was filtered.
10 mg of Semaxanib (3-((3,5-dimethyl-1H-pyrrol-2-yl)methylene)indolin-2-one) were added to 4 g of 60% (w/w) aqueous SBECD, and the mixture was heated in boiling water bath for 1 hour, then kept at room temperature for 24 hours. The mixture was then filtered through a 0.2 micrometer nylon filter to produce 1.3 mg/g semaxanib solution, as determined by HPLC. 80 mg of PI2080 (polyethyleneimine 2000 conjugated with PEG 8000) were added and mixed until completely dissolved, and the composition was filtered.
40 mg of xanthone (9H-xanthen-9-one) were added to 4 g of 60% (w/w) aqueous SBECD, and the mixture was heated in boiling water bath for 1 hour, then kept at room temperature for 24 hours. The mixture was filtered through a 0.2 micrometer nylon filter to produce 8.2 mg/g xanthone solution, as determined by HPLC. 120 mg of low molecular weight protamine were added and mixed until completely dissolved, and the composition was filtered.
100 mg of carvedilol were added to 4 g of 60% (w/w) aqueous SBECD, and the mixture was heated in boiling water bath for 1 hour, then kept at room temperature for 24 hours. The mixture was filtered through a 0.2 micrometer nylon filter to produce 22.6 mg/g carvedilol solution, as determined by HPLC. 120 mg of hexakis(6-amino-6-deoxy)-alpha-cyclodextrin were dissolved in 2 mL water, and the two solutions mixed until completely homogenous. The product solution was freeze-dried to form an amorphous solid.
10 mg of talidomid were added to 4 g of 60% (w/w) aqueous SBECD, and the mixture was mixed at 34° C. for 48 hours. The mixture was filtered through a 0.2 micrometer nylon filter to produce 1.7 mg/g talidomid solution, as determined by HPLC. 120 mg of heptakis(6-amino-6-deoxy)-beta-cyclodextrin were added and mixed until completely dissolved, and the composition was filtered.
2 mg of SN-38 (7-Ethyl-10-hydroxy-camptothecin) were added to 4 g of 60% (w/w) aqueous SBECD, and the mixture was heated in boiling water bath for 1 hour, then kept at room temperature for 24 hours. The mixture was filtered through a 0.2 micrometer nylon filter to produce 0.39 mg/g SN-38 solution, as determined by HPLC. A solution of 60 mg of heptakis(6-amino-6-deoxy)-beta-cyclodextrin in 2 mL water was added to the SN-38 solution, and mixed until the resulting solution was completely homogenous. The composition was filtered. […]

[1] = boiling water bath 1 hour, room temperature 24 hours

SMILES | concentration of active ingredient in filtered solution [1] | concentration of active ingredient in filtered solution (mixed at 34° C. for 48 hours)
O=c1c2ccccc2oc2ccccc12 [xanthone, 9H-xanthen-9-one] | 8.2 mg/g | 
CC(=O)[C@@]1(O)CC[C@H]2[C@@H]3C=C(C)C4=CC(=O)CC[C@]4(C)[C@H]3CC[C@@]21C [megesterol] | 4.3 mg/g | 
CC(C)Cc1ccc(C(C)C(=O)O)cc1 (stereo not drawn) [ibuprofen] |  | 78.1 mg/g
COc1ccccc1OCCNCC(O)COc1cccc2[nH]c3ccccc3c12 (stereo not drawn) [carvedilol] | 22.6 mg/g | 
O=c1ccc2ccccc2o1 [coumarin] |  | 44.3 mg/g
CCc1c2c(nc3ccc(O)cc13)-c1cc3c(c(=O)n1C2)COC(=O)[C@]3(O)CC [SN-38, 7-Ethyl-10-hydroxy-camptothecin] | 0.39 mg/g | 

Continued, values first:

concentration of active ingredient in filtered solution [1] | concentration of active ingredient in filtered solution (mixed at 34° C. for 48 hours) | SMILES
1.3 mg/g |  | Cc1cc(C)c(C=C2C(=O)Nc3ccccc32)[nH]1 [semaxanib, 3-((3,5-dimethyl-1H-pyrrol-2-yl)methylene)indolin-2-one]
 | 0.4 mg/g | CC(=O)O[C@H]1C(=O)[C@@]2(C)[C@H]([C@H](OC(=O)c3ccccc3)[C@]3(O)C[C@H](OC(=O)[C@H](O)[C@@H](NC(=O)c4ccccc4)c4ccccc4)C(C)=C1C3(C)C)[C@]1(OC(C)=O)CO[C@@H]1C[C@@H]2O [paclitaxel]
 | 1.7 mg/g | O=C1CCC(N2C(=O)c3ccccc3C2=O)C(=O)N1 (stereo not drawn) [talidomid]

From patent publication US20110207764A1, “CYCLOPOLYSACCHARIDE COMPOSITIONS” (priority 2010, published 2011)
